Laboratory results: ChEMBL document CHEMBL1201862, “PubChem BioAssay data set” (2004)
Several values for one entry are separate records, joined by “and”; a condition that tells them apart may be missing. Equal entries are not always repeated.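 All cell lines were grown in 96-well plates and treated with compound for 48 hours. At the GI50, growth is halved.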 Activity calls are given as the source filed them. Cut-off read from the data, not from the text of the source: active = GI50 up to about 1.1 µM and inactive = higher.

Assays:
Test in all cases: NCI-60 cell line screen, 48 h
[1] = test system: SNB-78
[2] = test system: DLD-1
[3] = test system: HOP-18
[4] = test system: LXFL 529
[5] = test system: XF498
[6] = test system: DMS-114
[7] = test system: DMS-273
[8] = test system: M19-MEL
[9] = test system: RXF 631

Row | SMILES | GI50 [1] | GI50 [2] | GI50 [3] | GI50 [4] | GI50 [5] | GI50 [6] | GI50 [7] | GI50 [8] | GI50 [9]
1 | CCN(CC)CCC(=O)N1CCc2c([nH]c3ccccc23)C1c1cccnc1 (configuration not stated) | > 100 µM (inactive) | > 100 µM (inactive) | > 100 µM (inactive) | > 100 µM (inactive) | > 100 µM (inactive) | > 100 µM (inactive) | > 100 µM (inactive) | > 100 µM (inactive) | 
2 | COc1cccc2c1C1=CC(=O)CCC1C(C)(C)O2 (configuration not stated) | > 100 µM (inactive) | 57.5 µM (inactive) | > 100 µM (inactive) | > 100 µM (inactive) |  | 27.8 µM (inactive) | > 100 µM (inactive) | > 100 µM (inactive) | > 100 µM (inactive)
3 | Cc1cc(C)c(C(=O)C(C)C(c2ccccc2)c2ccc(Cl)cc2)c(C)c1 (configuration not stated) |  | > 100 µM (inactive) | > 100 µM (inactive) | 63.5 µM (inactive) | 61.2 µM (inactive) and 33.3 µM (inactive) | > 100 µM (inactive) and 76.7 µM (inactive) |  | 43.9 µM (inactive) and 33.3 µM (inactive) | > 100 µM (inactive) and 95.1 µM (inactive)
4 | CC(SC(=S)N1CCOCC1)c1cc2oc(=O)n(C)c2cc1Cl (configuration not stated) | > 100 µM (inactive) | > 100 µM (inactive) | > 100 µM (inactive) | 57.4 µM (inactive) | > 100 µM (inactive) | 84.5 µM (inactive) | > 100 µM (inactive) | > 100 µM (inactive) | 
5 | COc1ccc(C/C(=N/O)C(=O)NCCc2cc(Br)c(OCCCN(C)C)c(Br)c2)cc1Br [APLYSAMINE 2] | 18.5 µM (inactive) | 7.8 µM (inactive) | 0.0528 µM (active) | 16.1 µM (inactive) | 12.9 µM (inactive) | 18.5 µM (inactive) | 0.791 µM (active) | 18.2 µM (inactive) | 
6 | CCCN(CCC)c1c([N+](=O)[O-])cc(C(=O)N(CCO)CCO)cc1[N+](=O)[O-] | > 100 µM (inactive) | > 100 µM (inactive) | > 100 µM (inactive) | > 100 µM (inactive) | 97.1 µM (inactive) |  | > 100 µM (inactive) | > 100 µM (inactive) | 
7 | Cc1ccc([S+](c2ccccc2)c2cc(C)ccc2C)cc1.O=C(OC(C(=O)[O-])C(OC(=O)c1ccccc1)C(=O)O)c1ccccc1 (configuration not stated) | 17.7 µM (inactive) | 14.6 µM (inactive) | 12.3 µM (inactive) |  | 3.75 µM (inactive) |  | 1.89 µM (inactive) | 5.41 µM (inactive) | 
8 | C=C/C=C(\NC(=O)C(Cl)(Cl)Cl)[Si](C)(C)C | > 100 µM (inactive) | > 100 µM (inactive) | > 100 µM (inactive) | > 100 µM (inactive) | > 100 µM (inactive) | > 100 µM (inactive) | > 100 µM (inactive) | > 100 µM (inactive) | 
9 | CCOC(=O)C(C(O)c1ccc([N+](=O)[O-])cc1)P(=O)(OCC)OCC (configuration not stated) |  | > 100 µM (inactive) | > 100 µM (inactive) | > 100 µM (inactive) | > 100 µM (inactive) |  | > 100 µM (inactive) | 77.6 µM (inactive) | > 100 µM (inactive)
10 | COC(=O)C1C=CCON2CCc3c(n(S(=O)(=O)c4ccccc4)c4ccccc34)C12 (configuration not stated) | > 100 µM (inactive) | 10.7 µM (inactive) | 64.6 µM (inactive) | 73.8 µM (inactive) |  | 41.2 µM (inactive) | 48.8 µM (inactive) | 40.6 µM (inactive) | 
11 | CC(C)N1CC2CC(CN(C(=O)c3ccc(Cl)cc3)C2)C1 |  |  | > 100 µM (inactive) | > 100 µM (inactive) | > 100 µM (inactive) | > 100 µM (inactive) | > 100 µM (inactive) | > 100 µM (inactive) | > 100 µM (inactive)
12 | C=C1C(=O)OC2C1C(OC(=O)/C(=C/C)COC(C)=O)CC1(CO1)C1C(OC(=O)/C(=C/C)CO)C=C(C)C21 (configuration not stated) | 1.65 µM (inactive) | 1.34 µM (inactive) | 1.34 µM (inactive) | 0.427 µM (active) | 1.45 µM (inactive) | 1.85 µM (inactive) | 1.73 µM (inactive) | 1.79 µM (inactive) | 
13 | C[N+](C)(C)CC(=O)N/N=C(/C(=O)Nc1ccc(Br)cc1)C1C(=O)NC(=O)NC1=O | > 100 µM (inactive) | > 100 µM (inactive) | > 100 µM (inactive) | > 100 µM (inactive) |  | > 100 µM (inactive) | > 100 µM (inactive) | > 100 µM (inactive) | > 100 µM (inactive)
14 | CN(C)C(=S)SN(C)C(=O)Nc1ccccc1 | 39.9 µM (inactive) | 31.1 µM (inactive) |  | 0.391 µM (active) |  | 2.4 µM (inactive) | 18.2 µM (inactive) | 2.21 µM (inactive) | > 51.9 µM (inactive)
15 | O=C1/C(=C/c2ccc(Cl)cc2)CCC1CNc1ccc(Cl)cc1 (configuration not stated) | 23.7 µM (inactive) | 1.68 µM (inactive) | 33.9 µM (inactive) | 0.711 µM (active) | 12.8 µM (inactive) | 3.94 µM (inactive) | 1.73 µM (inactive) | 3.97 µM (inactive) | 
